Type in all cases: cell-based
One experiment has as its target T1, PfENT1 (Plasmodium falciparum, UniProt Q8IDM6).
T1 construct: expressed in transfected cells; host or cells: fui1Δ yeast (Saccharomyces cerevisiae), co-expressing GFP
The following applies: primary HTS, compounds at 10 μM, 125 μM 5-FUrd. A digest of the protocol:
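fui1Δ yeast expressing PfENT1 and GFP were grown with 125 μM 5-fluorouridine, so growth reflects blocked 5-FUrd uptake. Compounds were screened at 10 μM. Growth scored by OD620 turbidity and GFP fluorescence, and hits had to be positive on both.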

The next experiment has as its target T2, PfENT1-HA-CO (Plasmodium falciparum, UniProt Q8IDM6).
T2 construct: HA; expressed in transfected cells; host or cells: fui1Δ yeast (Saccharomyces cerevisiae)
Kind of experiment: Concentration-dependent rescue of PfENT1-HA-CO-expressing fui1Δ yeast from 5-FUrd induced death. Here is the method: In the primary screen the compounds were tested at a concentration of 10 μM. Hits were identified by the growth of fui1Δ yeast expressing PfENT1 and Green Fluorescent Protein (GFP) in the presence of the cytotoxic nucleoside 5-fluorouridine (5-FUrd). 5-FUrd is transported by PfENT1. PfENT1 expressing fui1Δ yeast will only grow in the presence of 125 μM 5-FUrd if a PfENT1 inhibitor blocks the uptake of 5-FUrd into the yeast. Significant yeast growth in the HTS in 384 well plates was determined by two criteria: 1) turbidity as determined by the optical density at 620 nm (OD620) and 2) GFP fluorescence intensity. Positive responses were signal intensities greater than four standard deviations above the mean of the negative growth control wells. Hits had to be positive by both criteria. From the library screen, 171 chemical entities were identified as positive by both criteria (Table 2).
Of the 171 hits from the primary HTS, nine were chosen for more extensive validation using a series of secondary assays. These nine compounds included the top seven hits (HTS rank #1-7 as indicated in Tables 1 and 2), the first hit identified (compound HTS rank #19) and compound HTS rank #13, which was a unique chemical scaffold relative to the other 8 compounds. The secondary assays used to validate the nine selected hits include 1) repeat of the primary HTS using a series of compound concentrations to determine the concentration-response relationship for each compound, 2) testing in an alternative yeast-based assay in purine auxotrophic ade2Δ yeast expressing PfENT1 (described below, FIG. 1 and FIG. 4B), and 3) a Plasmodium falciparum cytotoxicity assay (described below, FIGS. 5A-B.). These assays allowed further confirmation the hits, determining the concentration-response relationships in the yeast-based assays and the concentration dependence of their ability to kill Plasmodium falciparum parasites during growth in in vitro culture. There was a roughly linear correlation between the compounds' IC50s measured in the two yeast-based assays. All nine compounds were tested in the P. falciparum cytotoxicity assay (FIGS. 5A-B).
(§1) The means values from single experiments are shown. In the key, CQ=chloroquine, and the Table 1 compounds are referenced as symbols indicating HTS rank #1-7, 13, and 19. In this assay, inhibitors of PfENT1 […] yeast growth (FIGS. 4B-C).

The target in the next experiment is T3, PfENT1-CO (Plasmodium falciparum, UniProt Q8IDM6).
T3 construct: expressed in transfected cells; host or cells: purine auxotrophic ade2Δ yeast (Saccharomyces cerevisiae)
T3 sequence (Q8IDM6 whole entry): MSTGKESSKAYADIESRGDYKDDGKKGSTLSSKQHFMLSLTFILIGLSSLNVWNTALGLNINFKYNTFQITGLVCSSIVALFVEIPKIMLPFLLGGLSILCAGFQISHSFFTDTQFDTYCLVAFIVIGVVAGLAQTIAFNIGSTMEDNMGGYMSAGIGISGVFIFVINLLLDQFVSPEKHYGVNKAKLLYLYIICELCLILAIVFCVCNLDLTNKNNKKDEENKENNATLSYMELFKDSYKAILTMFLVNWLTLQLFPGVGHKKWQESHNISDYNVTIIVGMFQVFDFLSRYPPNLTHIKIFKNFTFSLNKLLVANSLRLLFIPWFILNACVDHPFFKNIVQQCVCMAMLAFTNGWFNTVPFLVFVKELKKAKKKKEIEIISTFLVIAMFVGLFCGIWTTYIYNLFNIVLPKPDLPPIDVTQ
Kind of experiment: [3H]adenosine uptake into PfENT1-CO expressing ade2Δ yeast. The following applies: uptake over 15 minutes; Mean ± SD, N ≧ 3.
Text: FIGS. 4A-C are graphs showing the validation of selected compounds identified as Plasmodium falciparum Equilibrative Nucleoside Transporter Type I (PfENT1) inhibitors in the high-throughput screen (HTS). […] The means values from single experiments are shown. In the key, CQ=chloroquine, and the Table 1 compounds are referenced as symbols indicating HTS rank #1-7, 13, and 19.
as §1

The test system of experiment [1] is P. falciparum 3D7 parasites. Kind of experiment: [3H]adenosine uptake into trophozoite-stage P. falciparum 3D7 parasites. Particulars: Plasmodium falciparum, uptake over 15 minutes, Mean ± SD, N ≧ 3. From the text: FIGS. 5A-E are graphs and images reflecting the inhibitory effects of selected PfENT1 inhibiting compounds with P. falciparum. FIGS. 5A-C are graphs illustrating the inhibitory effects of selected PfENT1 inhibiting compounds with P. falciparum.

Experiment [2] relates to P. falciparum parasites (3D7 strain). Kind of experiment: Plasmodium falciparum cytotoxicity assay (3D7 strain, SYBR-Green). The following applies: 72-96 hours, Mean ± SD. Here is the method: Plasmodium falciparum Cytotoxicity Assay
P. falciparum parasites (3D7 strain-chloroquine sensitive) are grown in in vitro culture in human erythrocytes. Each well is inoculated with a low density of parasites in standard parasite growth media with supplemented hypoxanthine (10 or 367 μM). Increasing concentrations of drugs are added and parasites are allowed to grow for 72-96 hours in 5% CO2/5% O2/90% N2 gas at 37° C. At the end of the experiment, parasites are lysed, SYBR-Green dye in lysis solution is added and the fluorescence intensity is measured for each well.

For a further experiment, the system named is Dd2 parasite. The experiment in a line: Plasmodium falciparum parasite viability assay (Dd2). Particulars: Dd2, high purine media, Mean ± SD.
Where [3] appears, read: 3D7, high purine media (hypoxanthine 367 μM), read-out: IC50 3D7 parasite viability-high purine media.
Where [4] appears, read: 3D7, low purine media (hypoxanthine 10 μM), read-out: IC50 3D7 parasite viability-low purine media.

SMILES strings stand for the structures. Where two headings read alike, the source gives them in different places.

T1 sequence (Q8IDM6 whole entry): as above
T2 sequence (Q8IDM6 whole entry): as above

A word on the IC50: it is the point on the concentration scale where inhibition reaches its midpoint. Regarding `COc1cc(COc2ccc3c(C)cc(=O)oc3c2)cc(OC)c1OC` [HTS Rank #3, 4-methyl-7-[(3,4,5-trimethoxybenzyl)oxy]-2H-chromen-2-one], the “Avg Normalized % maximal activity” value at PfENT1 is given as 84.71%. In addition, the IC50 turned out to be 2.3 ± 0.9 µM against PfENT1-HA-CO; 0.0024 ± 0.0015 µM on PfENT1-CO; 0.0064 ± 0.003 µM in experiment [1]; 41 ± 4.3 µM in experiment [2] (setting [3]); 19.2 ± 4.3 µM in experiment [2] (setting [4]); 36.2 ± 6 µM with Dd2 parasite.
On to `O=C(Nc1ccc2nc(NC(=O)c3ccco3)sc2c1)c1ccco1` [compound 1], for which, on PfENT1, the “Avg Normalized % maximal activity” value came to 97.22%. In addition, the concentration for half-maximal inhibition (IC50) against PfENT1-HA-CO stood at 0.8 µM; at PfENT1-CO, 0.003 ± 0.0013 µM; in experiment [1], 0.0054 ± 0.0029 µM; in experiment [2] (setting [3]) it was 37.7 ± 2 µM; in experiment [2] (setting [4]) it was 31.1 ± 4.7 µM; with Dd2 parasite, 25.8 ± 1.3 µM.
`O=C(Nc1ccc(-c2nc3ncccc3o2)cc1)c1ccccc1Br` [compound 2, 2-bromo-N-(4-[1,3]oxazolo [4,5-b]pyridin-2-ylphenyl)benzamide]: the “Avg Normalized % maximal activity” value at PfENT1 was 91.94%. For the same compound, the IC50 at PfENT1-HA-CO is 6 ± 1.7 µM; on PfENT1-CO, 0.0101 ± 0.0084 µM; in experiment [1], 0.028 ± 0.0123 µM; in experiment [2] (setting [3]), 53.4 ± 11.1 µM; in experiment [2] (setting [4]) it was 31.2 ± 7.7 µM; in the experiment on Dd2 parasite it was 52.4 ± 5.7 µM.
With `O=C(Nc1ccc(-c2nnc(-c3ccco3)o2)cc1)c1ccco1` [compound 4, N-{4-[5-(2-furyl)-1,3,4-oxadiazol-2-yl]phenyl}-2-furamide], the “Avg Normalized % maximal activity” value at PfENT1 is listed as 74.03%. The half-maximal inhibitory concentration (IC50) at PfENT1-HA-CO stood at 5.7 ± 0.8 µM; at PfENT1-CO it was 0.0137 ± 0.0075 µM; in experiment [1], 0.0458 ± 0.0241 µM; in experiment [2] (setting [3]), 14.7 ± 1.9 µM; in experiment [2] (setting [4]), 15 ± 1.5 µM; with Dd2 parasite, 15.3 ± 2.7 µM.
Regarding `Cn1cc(C(=O)C(=O)Nc2ccc(C(=O)N3CCCC3)cc2)c2ccccc21` [compound 5, 2-(1-methyl-1H-indol-3-yl)-2-oxo-N-[4-(pyrrolidin-1-ylcarbonyl)phenyl]acetamide], at PfENT1, the “Avg Normalized % maximal activity” value worked out at 64.07%. For the same compound, the IC50 at PfENT1-HA-CO is 6.5 ± 1.5 µM; at PfENT1-CO, 0.0227 ± 0.0072 µM; in experiment [1], 0.0386 ± 0.0201 µM; in experiment [2] (setting [3]) it was 33.1 ± 0.5 µM; in experiment [2] (setting [4]), 35.5 ± 0.7 µM; with Dd2 parasite it was 28.9 ± 2.6 µM.
`O=C(Nc1cccc(-c2nc3ncccc3o2)c1)c1cccc(F)c1` [compound 6, 3-fluoro-N-(3-[1,3]oxazolo [4,5-b]pyridin-2-ylphenyl)benzamide]: the “Avg Normalized % maximal activity” value at PfENT1 worked out at 59.06%. The half-maximal inhibitory concentration (IC50) worked out at 5.7 ± 1.3 µM against PfENT1-HA-CO; 0.0096 ± 0.0074 µM at PfENT1-CO; 0.0198 ± 0.0129 µM in experiment [1]; 33.7 ± 5 µM in experiment [2] (setting [3]); 34.8 ± 2.4 µM in experiment [2] (setting [4]); 38.8 ± 4.9 µM in the experiment on Dd2 parasite.
With `COc1ccccc1C(=O)Nc1cccc(-c2nc3ncccc3o2)c1` [compound 7, 2-methoxy-N-(3-[1,3]oxazolo [4,5-b]pyridin-2-ylphenyl)benzamide], the “Avg Normalized % maximal activity” value on PfENT1 amounted to 55.05%. In addition, the concentration for half-maximal inhibition (IC50) against PfENT1-HA-CO came out at 6.4 ± 0.9 µM; on PfENT1-CO it was 0.0109 ± 0.0068 µM; in experiment [1], 0.0248 ± 0.0174 µM; in experiment [2] (setting [3]), 44.8 ± 3.8 µM; in experiment [2] (setting [4]), 43.6 ± 4.4 µM; in the experiment with Dd2 parasite, 31 ± 0.6 µM.
As to `Cc1ccccc1/C=C/c1nc2ccccc2c(=O)[nH]1` [compound 13, 2-[2-(2-methylphenyl)vinyl]-4(3H)-quinazolinone], at PfENT1, the “Avg Normalized % maximal activity” value is on record as 24.69%. For the same compound, the IC50 against PfENT1-HA-CO is 4.7 ± 2.9 µM; in experiment [1], 0.0216 ± 0.0142 µM; in experiment [2] (setting [3]) it was 6.7 ± 0.5 µM; in experiment [2] (setting [4]), 6.9 ± 0.4 µM; in the experiment with Dd2 parasite, 2.6 ± 0.2 µM.
As to `O=C(Nc1ccc(Cl)c(-c2nc3ncccc3o2)c1)c1cccs1` [compound 19, N-(4-chloro-3-[1,3]oxazolo [4,5-b]pyridin-2-ylphenyl)-2-thiophenecarboxamide], the “Avg Normalized % maximal activity” value on PfENT1 turned out to be 21.24%. In addition, the concentration for half-maximal inhibition (IC50) was found to be 5.4 ± 0.8 µM against PfENT1-HA-CO; 0.0384 ± 0.0165 µM at PfENT1-CO; 0.0179 ± 0.0127 µM in experiment [1]; 42.9 ± 2.8 µM in experiment [2] (setting [3]); 43.2 ± 2.9 µM in experiment [2] (setting [4]); 37.4 ± 1.6 µM with Dd2 parasite.

Source of the values: patent US9695193B2, “Inhibitors of Plasmodium falciparum equilibrative nucleoside transporter type I as anti-parasitic compounds” (The Trustees of Columbia University in the City of New York, priority 2013, dated 2017).
